Here are results for 7 compounds from ChEMBL document CHEMBL5465560, “Selectivity Literature for EUbOPEN Chemogenomic Library” (2024).

Experiment [1] deals with T1, Phosphatidylinositol 5-phosphate 4-kinase type-2 beta (Homo sapiens) (UniProt P78356).
T1 sequence (whole entry): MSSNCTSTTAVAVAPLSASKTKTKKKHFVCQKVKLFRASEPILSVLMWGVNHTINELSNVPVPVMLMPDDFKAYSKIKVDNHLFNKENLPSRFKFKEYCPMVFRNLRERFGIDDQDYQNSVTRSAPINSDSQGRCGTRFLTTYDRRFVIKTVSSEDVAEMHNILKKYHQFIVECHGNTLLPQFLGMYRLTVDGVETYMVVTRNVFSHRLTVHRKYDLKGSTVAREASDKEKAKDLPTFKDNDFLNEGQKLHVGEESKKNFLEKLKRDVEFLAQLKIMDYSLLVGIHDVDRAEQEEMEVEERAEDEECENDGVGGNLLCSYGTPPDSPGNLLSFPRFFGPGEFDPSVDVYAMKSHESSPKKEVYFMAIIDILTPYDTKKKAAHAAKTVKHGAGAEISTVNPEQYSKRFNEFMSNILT
Nature of the experiment: Selectivity interaction (KinomeScan (DiscoverX)) EUB0000229b PIP4K2B. As to conditions: at 10 µM.

Experiment [2] has as its target T2, Receptor-interacting serine/threonine-protein kinase 1 (Homo sapiens) (UniProt Q13546).
T2 sequence (whole entry): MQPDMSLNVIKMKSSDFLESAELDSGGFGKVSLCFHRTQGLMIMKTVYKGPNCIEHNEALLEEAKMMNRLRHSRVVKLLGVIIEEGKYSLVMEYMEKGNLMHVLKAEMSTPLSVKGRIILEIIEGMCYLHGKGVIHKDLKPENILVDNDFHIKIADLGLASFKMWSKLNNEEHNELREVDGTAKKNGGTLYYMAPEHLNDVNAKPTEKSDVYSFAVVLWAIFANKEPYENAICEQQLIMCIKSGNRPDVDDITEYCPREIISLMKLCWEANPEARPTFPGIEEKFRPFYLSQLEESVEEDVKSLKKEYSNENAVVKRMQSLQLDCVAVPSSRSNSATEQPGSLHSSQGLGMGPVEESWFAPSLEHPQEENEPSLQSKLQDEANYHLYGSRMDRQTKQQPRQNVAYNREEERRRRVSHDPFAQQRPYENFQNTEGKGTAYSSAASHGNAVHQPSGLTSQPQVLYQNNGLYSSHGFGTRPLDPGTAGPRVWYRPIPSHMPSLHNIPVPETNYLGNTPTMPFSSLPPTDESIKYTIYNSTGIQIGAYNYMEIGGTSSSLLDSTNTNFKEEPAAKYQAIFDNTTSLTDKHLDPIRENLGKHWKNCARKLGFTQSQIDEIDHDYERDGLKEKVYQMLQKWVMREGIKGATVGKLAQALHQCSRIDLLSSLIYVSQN
Nature of the experiment: Selectivity interaction (KinomeScan (DiscoverX)) EUB0001619a RIPK1. As to conditions: at 1 µM.

Experiment [3] has as its target Mitogen-activated protein kinase 1 (Homo sapiens, UniProt P28482). Nature of the experiment: Selectivity interaction (Kinase panel (33PanQinase(R) Activity Assay)) EUB0000877a MAPK1.
For experiment [4], the target named is STE20-like serine/threonine-protein kinase (Homo sapiens, UniProt Q9H2G2). Nature of the experiment: Selectivity interaction (ActivX KiNativ screen (kinase selectivity in THP-1 cell lysates)) EUB0000639a SLK. In kind it is subcellular. As to conditions: lysate, at 0.01 µM.
Sequence of STE20-like serine/threonine-protein kinase (Q9H2G2 whole entry, looked up): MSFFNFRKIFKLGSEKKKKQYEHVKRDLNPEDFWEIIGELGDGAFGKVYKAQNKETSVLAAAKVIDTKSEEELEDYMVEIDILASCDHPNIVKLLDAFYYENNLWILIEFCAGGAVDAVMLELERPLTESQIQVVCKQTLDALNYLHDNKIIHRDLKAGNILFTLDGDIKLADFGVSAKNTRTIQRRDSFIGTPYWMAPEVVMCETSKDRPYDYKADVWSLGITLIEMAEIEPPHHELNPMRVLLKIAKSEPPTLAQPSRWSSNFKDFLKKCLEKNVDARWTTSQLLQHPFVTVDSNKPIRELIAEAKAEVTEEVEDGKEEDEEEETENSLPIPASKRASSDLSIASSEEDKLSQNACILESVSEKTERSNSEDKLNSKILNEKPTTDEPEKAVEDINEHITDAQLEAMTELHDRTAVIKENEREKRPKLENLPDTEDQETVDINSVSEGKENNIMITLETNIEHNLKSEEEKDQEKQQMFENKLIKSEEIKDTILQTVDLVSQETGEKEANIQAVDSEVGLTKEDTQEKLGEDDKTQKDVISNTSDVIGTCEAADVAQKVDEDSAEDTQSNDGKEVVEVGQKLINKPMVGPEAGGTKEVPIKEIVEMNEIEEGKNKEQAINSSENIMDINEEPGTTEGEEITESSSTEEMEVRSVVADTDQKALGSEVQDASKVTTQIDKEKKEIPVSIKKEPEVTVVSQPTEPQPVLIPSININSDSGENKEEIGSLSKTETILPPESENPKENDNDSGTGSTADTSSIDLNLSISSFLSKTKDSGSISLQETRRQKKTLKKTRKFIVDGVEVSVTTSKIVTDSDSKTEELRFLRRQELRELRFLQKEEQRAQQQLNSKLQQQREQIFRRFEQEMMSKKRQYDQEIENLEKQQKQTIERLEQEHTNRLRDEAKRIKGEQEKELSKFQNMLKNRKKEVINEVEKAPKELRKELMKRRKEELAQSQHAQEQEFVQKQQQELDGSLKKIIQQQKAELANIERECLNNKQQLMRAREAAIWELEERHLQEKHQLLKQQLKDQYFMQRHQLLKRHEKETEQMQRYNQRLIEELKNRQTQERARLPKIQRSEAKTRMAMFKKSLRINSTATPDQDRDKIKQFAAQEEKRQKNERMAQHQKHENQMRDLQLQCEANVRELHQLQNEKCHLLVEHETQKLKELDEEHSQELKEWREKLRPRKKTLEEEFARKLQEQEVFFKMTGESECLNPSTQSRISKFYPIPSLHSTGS
Experiment [5] deals with AP2-associated protein kinase 1 (Homo sapiens, UniProt Q2M2I8). As to conditions: at 10 µM.
Sequence of AP2-associated protein kinase 1 (Q2M2I8 whole entry, looked up): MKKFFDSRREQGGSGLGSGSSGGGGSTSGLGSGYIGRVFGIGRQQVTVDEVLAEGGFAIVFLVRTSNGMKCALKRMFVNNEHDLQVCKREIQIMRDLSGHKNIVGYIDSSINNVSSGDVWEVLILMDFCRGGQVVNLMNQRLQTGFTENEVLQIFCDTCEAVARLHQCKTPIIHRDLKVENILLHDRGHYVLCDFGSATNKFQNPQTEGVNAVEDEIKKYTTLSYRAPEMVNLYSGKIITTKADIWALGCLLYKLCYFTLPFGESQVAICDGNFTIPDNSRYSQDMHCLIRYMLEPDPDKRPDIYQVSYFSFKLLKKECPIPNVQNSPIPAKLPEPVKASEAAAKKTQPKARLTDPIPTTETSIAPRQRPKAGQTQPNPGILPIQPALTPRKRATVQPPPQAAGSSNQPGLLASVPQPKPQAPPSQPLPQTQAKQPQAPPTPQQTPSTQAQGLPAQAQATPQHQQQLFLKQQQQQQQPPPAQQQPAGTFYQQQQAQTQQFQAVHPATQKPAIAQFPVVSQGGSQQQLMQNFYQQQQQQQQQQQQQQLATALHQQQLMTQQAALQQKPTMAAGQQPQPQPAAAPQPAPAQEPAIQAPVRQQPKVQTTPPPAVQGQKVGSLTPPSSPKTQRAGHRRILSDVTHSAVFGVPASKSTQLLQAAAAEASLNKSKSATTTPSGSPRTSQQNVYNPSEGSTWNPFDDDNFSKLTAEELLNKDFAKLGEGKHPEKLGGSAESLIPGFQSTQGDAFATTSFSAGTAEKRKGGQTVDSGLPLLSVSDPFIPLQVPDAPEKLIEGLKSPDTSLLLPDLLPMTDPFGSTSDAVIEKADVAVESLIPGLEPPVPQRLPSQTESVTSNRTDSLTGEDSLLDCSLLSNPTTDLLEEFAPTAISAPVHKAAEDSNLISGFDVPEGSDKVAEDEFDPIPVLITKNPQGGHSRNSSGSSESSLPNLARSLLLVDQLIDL
Experiment [6] addresses T3, Serine/threonine-protein kinase Sgk2 (Homo sapiens) (UniProt Q9HBY8).
T3 sequence (whole entry): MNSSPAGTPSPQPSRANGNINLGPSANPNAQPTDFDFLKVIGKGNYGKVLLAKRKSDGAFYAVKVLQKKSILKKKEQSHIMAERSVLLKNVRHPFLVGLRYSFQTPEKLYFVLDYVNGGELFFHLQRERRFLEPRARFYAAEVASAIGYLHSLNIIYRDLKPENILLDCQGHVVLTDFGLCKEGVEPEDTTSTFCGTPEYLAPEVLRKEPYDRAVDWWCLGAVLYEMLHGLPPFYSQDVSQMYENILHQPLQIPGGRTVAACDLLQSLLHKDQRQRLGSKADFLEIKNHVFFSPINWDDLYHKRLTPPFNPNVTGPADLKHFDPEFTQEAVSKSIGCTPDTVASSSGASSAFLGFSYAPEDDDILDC
Kind of experiment: Selectivity interaction (KinomeScan (DiscoverX)) EUB0001049a SGK2. As to conditions: at 1 µM.

The target in experiment [7] is T4, Serine/threonine-protein kinase TNNI3K (Homo sapiens) (UniProt Q59H18).
T4 sequence (whole entry): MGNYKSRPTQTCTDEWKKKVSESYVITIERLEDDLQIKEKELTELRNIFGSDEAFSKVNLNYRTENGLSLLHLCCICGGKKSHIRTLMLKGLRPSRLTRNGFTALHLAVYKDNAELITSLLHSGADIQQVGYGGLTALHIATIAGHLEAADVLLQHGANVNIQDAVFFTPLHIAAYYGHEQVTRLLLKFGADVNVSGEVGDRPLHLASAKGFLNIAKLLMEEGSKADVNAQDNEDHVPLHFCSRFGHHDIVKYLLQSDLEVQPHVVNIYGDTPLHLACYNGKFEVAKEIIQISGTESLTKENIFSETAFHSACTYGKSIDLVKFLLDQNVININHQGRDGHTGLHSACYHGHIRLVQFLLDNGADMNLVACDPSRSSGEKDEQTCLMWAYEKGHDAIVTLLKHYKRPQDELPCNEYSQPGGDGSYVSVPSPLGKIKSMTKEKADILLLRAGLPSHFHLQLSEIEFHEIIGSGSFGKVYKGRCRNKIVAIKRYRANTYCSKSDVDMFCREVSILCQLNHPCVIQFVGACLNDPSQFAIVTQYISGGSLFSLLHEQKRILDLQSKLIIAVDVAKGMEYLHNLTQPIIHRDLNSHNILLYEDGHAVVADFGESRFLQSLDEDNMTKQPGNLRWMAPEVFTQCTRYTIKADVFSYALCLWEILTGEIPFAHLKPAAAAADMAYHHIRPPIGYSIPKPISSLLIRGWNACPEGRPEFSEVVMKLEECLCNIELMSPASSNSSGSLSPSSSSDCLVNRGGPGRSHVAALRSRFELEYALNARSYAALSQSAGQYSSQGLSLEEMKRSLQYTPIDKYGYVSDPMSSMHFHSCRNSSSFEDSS
Nature of the experiment: Selectivity interaction (KinomeScan (DiscoverX)) EUB0000595a TNNI3K. The note with it: at 10 µM.

Sequence of Mitogen-activated protein kinase 1 (P28482 whole entry): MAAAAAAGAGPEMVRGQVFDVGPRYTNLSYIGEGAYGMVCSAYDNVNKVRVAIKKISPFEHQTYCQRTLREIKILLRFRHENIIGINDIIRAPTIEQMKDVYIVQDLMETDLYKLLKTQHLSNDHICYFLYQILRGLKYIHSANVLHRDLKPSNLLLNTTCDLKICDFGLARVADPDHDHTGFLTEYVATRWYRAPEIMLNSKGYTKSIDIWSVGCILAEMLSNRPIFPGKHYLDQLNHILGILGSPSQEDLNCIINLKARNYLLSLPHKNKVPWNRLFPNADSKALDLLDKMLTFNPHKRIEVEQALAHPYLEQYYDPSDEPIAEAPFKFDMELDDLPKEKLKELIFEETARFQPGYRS

For `COc1cc(N(C)c2ccnc3ccc(C(F)(F)F)cc23)cc(OC)c1OC`, the % binding in experiment [1] stood at 100%.

On to `N#Cc1cccc(-c2c[nH]c3ncnc(N4CCOCC4)c23)c1`, for which, in experiment [2], the % of control was 100%.

In experiment [3], `CCC(=O)N1CC[C@H](Nc2ncnc3c2CN(c2cnc(OC)c(C(F)(F)F)c2)CC3)C1` [LENIOLISIB] yielded an IC50 of more than 10 µM.

Take `CC[C@@H]1[C@H](F)C(=O)N[C@@H]1COc1nccc2cc(C(N)=O)c(OC)cc12` [ZIMLOVISERTIB]: in experiment [4], the % of inhibition is -0.7%.

Take `CCN(CC)CCCCNc1ncc2cc(-c3cc(OC)cc(OC)c3)c(NC(=O)NC(C)(C)C)nc2n1`: the % of control in experiment [5] worked out at 100%.

On to `COc1cc(Nc2nc(C)cc(-c3cnn4nc(OC)ccc34)n2)cc(C(F)(F)F)c1`, for which the % of control in experiment [6] was 78%.

In experiment [7], `COCC(=O)NC/C=C/c1ccc2ncnc(Nc3ccc(Oc4ccc(C)nc4)c(C)c3)c2c1` [CP-724714] displayed a % of control of 100%.

The term IC50 denotes the concentration at which inhibition is half-maximal.
